Assay results reported in ChEMBL document CHEMBL1201862, “PubChem BioAssay data set” (2004).
Active and inactive are the calls of the source.

Experiments:
[1] = inhibitors of intracellular T. cruzi replication, confirmation, NIH3T3 host cells, beta-gal luminescence (AID 2044); type: functional, cell-based;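 further: intracellular parasites grown in NIH/3T3 mouse fibroblasts as host cells; luminescent beta-galactosidase reporter signal from transgenic T. cruzi replicating inside host cells; inhibitors lower the luminescence signal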
[2] = target: T1, Calpain-2 catalytic subunit (Sus scrofa, UniProt P43367); assay: pig calpain II inhibitor potency, dose response, biochemical, fluorogenic peptide substrate (AID 1420); type: functional
T1 sequence (P43367 whole entry): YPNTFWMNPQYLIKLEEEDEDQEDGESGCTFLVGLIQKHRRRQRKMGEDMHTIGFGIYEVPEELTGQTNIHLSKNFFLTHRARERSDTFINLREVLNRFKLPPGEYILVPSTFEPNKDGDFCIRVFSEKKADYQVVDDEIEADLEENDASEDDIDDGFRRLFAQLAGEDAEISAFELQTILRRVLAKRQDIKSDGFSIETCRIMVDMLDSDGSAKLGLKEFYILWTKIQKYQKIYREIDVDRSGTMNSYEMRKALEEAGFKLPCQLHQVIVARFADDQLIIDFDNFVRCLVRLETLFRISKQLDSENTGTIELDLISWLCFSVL

[3] = cytotoxicity toward NIH3T3 fibroblasts, dose response, counter-screen, cell-based, ATP luminescence, mouse fibroblasts (AID 2010); type: functional;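 further: cells exposed to compound for about 90 hours before reading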
[4] = target: T2, Neuropeptide Y receptor type 1 (Homo sapiens, UniProt P25929); assay: NPY-Y1 receptor antagonist potency, dose response, cell-based (AID 1277); type: functional
T2 sequence (P25929 whole entry): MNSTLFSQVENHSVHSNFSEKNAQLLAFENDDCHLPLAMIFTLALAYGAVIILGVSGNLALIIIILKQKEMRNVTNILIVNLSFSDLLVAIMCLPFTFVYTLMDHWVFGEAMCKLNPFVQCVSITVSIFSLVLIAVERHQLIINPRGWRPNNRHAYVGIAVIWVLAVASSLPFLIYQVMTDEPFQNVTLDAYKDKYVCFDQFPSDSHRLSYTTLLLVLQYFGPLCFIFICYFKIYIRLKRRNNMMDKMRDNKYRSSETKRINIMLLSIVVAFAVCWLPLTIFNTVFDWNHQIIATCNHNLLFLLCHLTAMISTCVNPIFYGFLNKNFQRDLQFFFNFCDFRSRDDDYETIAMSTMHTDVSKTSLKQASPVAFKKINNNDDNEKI

[5] = target: T3, Neuropeptide Y receptor type 2 (Homo sapiens, UniProt P49146); assay: NPY-Y2 antagonist potency, selectivity check, dose response, counter-screen for NPY-Y1 antagonist project, cell-based (AID 1278); type: functional
T3 sequence (P49146 whole entry): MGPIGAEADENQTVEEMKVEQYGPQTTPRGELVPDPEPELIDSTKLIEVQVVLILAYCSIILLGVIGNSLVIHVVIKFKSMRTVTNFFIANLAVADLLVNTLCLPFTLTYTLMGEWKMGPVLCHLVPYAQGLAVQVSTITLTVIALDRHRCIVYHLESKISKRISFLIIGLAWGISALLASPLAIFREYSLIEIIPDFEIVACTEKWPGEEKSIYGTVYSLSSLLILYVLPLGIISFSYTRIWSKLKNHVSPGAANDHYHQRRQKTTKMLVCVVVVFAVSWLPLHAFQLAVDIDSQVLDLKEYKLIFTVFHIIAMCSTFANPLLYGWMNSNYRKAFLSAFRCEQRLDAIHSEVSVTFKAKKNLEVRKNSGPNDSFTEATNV

INS1 = assay: beta cell apoptosis inhibitors, cytokine rescue, dose response, luminescence, retest (AID 449756); type: functional, cell-based; details: Rattus norvegicus;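 further: cell death triggered by IL-1 beta plus TNF-alpha plus IFN-gamma mixture; protective hits raise ATP signal compared with cytokine alone wells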
HEK293 [6] = assay: cells; type: functional, cell-based; details: Homo sapiens
HEK293 [7] = assay: NOD1 signaling inhibitors, primary screen, cell-based, luminescence, uHTS (AID 1578); type: functional; details: Homo sapiens
[8] = Counterscreen for AddAB inhibitors: absorbance-based bacterial cell-based high throughput dose response assay for inhibitors of bacterial viability. [Related pubchem assays (depositor defined):AID435030, AID449728, AID449731, AID488942, AID488955, AID488956]; type: functional
Exodeoxyribonuclease V = Exodeoxyribonuclease V (Escherichia coli (strain K12), UniProt P04993+P07648+P08394); assay: E. coli RecBCD inhibitors, dose response, counter-screen for AddAB inhibitor project, absorbance, V66 E. coli, mutant T4 phage (AID 492957); type: functional, cell-based, Escherichia coli str. K-12 substr. MG1655
Nonstructural protein 1 = Nonstructural protein 1 (Influenza A virus, UniProt Q194T2); type: functional, Influenza A virus (A/California/07/2009(H1N1))
Sequence of Nonstructural protein 1 (Q194T2 whole entry): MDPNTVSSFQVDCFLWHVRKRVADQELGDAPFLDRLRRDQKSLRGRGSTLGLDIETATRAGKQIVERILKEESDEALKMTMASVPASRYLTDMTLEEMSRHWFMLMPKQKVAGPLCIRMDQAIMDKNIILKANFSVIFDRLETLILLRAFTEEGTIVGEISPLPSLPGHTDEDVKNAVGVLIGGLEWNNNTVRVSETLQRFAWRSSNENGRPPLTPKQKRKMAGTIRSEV

HEK293 [9] = assay: cells; type: functional, cell-based; details: Homo sapiens; remark: listed apart in the source
[10] = HepG2 cell cytotoxicity, dose response, cytotoxicity control, ATP luminescence, cherry-pick, activator set 2 (AID 1053143); type: functional, cell-based
HEK293 [11] = assay: NOD2 signaling inhibitors in MDP-stimulated cells, cell-based, uHTS, luminescence (AID 2001); type: functional; details: Homo sapiens
[12] = target: Nucleotide-binding oligomerization domain-containing protein 2 (Homo sapiens, UniProt Q9HC29); assay: NOD2 signaling inhibitors, cell-based, luminescence, uHTS, HEK293 (AID 1566); type: functional
Sequence of Nucleotide-binding oligomerization domain-containing protein 2 (Q9HC29 whole entry, the tested form may be a part): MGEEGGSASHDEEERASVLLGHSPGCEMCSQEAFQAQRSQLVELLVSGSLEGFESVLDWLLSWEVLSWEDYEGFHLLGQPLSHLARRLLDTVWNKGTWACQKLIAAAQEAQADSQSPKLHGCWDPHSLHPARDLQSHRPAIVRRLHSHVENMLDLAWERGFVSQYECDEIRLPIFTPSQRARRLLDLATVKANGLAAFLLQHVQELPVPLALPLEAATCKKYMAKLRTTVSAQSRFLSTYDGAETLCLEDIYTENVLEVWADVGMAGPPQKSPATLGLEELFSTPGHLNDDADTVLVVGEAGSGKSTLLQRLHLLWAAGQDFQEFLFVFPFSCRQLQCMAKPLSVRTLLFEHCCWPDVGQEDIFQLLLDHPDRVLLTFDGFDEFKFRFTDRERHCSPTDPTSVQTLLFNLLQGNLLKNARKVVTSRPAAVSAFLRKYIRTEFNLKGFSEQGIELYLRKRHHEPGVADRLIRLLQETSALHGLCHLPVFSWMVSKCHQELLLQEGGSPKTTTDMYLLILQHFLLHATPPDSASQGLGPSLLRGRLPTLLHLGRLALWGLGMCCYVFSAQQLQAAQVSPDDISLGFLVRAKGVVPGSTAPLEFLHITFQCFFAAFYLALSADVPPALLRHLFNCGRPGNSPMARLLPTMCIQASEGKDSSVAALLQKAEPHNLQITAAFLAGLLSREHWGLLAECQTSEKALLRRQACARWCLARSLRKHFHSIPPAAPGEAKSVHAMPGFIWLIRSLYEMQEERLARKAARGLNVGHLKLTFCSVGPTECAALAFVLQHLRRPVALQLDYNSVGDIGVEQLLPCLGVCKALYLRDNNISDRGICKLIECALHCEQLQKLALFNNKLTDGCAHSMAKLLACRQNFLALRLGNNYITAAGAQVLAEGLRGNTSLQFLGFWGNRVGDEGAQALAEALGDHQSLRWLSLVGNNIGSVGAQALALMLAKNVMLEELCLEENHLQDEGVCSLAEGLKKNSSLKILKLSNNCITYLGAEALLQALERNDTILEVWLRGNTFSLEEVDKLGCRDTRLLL

[13] = Luminescence-based counterscreen assay for KLF5 inhibitors: dose response cell-based high throughput screening assay to identify cytotoxic compounds using the IEC-6 intestinal epithelial cell line. [Related pubchem assays: 1700 (Primary screen.), 1834 (Confirmation screen.), 1858 (Summary AID.), 1905 (Counterscreen.)]; type: functional
HEK293 [14] = assay: cells; type: functional, cell-based; details: Homo sapiens; remark: listed apart in the source
[15] = NIH-3T3 fibroblast cytotoxicity, dose response, cytotoxicity control, cell-based, fluorescence, Alamar Blue, secondary assay (AID 2327); type: functional;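 further: NIH-3T3 mouse fibroblasts cultured with fluconazole at 8 µg/mL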
[16] = cytotoxicity in HEK-293T cells, dose response, cytotoxicity control for BCR NF-kB inhibitor project, luminescence, B-cell screen hits (AID 489021); type: functional, cell-based;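 further: HEK-293T cells carrying an NF-kB luciferase reporter; cells exposed to compound for about 14 hours before viability readout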
[17] = Luminescence-based dose response cell-based high throughput screening assay for cytotoxic compounds using the IEC-6 intestinal epithelial cell line. [Related pubchem assays: 1858 (Summary AID.), 1825 (Counterscreen.), 1907 (Confirmation screen.)]; type: functional
[18] = C. albicans growth with fluconazole, confirmation, fluorescence, retest (AID 2467); type: functional, cell-based
[19] = cytotoxicity in KRAS-transformed pancreatic duct cells, primary screen, cell-based, fluorescence, HTS (AID 431); type: functional; details: Homo sapiens;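 further: cell line used: HPDE-C7K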
[20] = cytotoxicity in HPDE-C7 cells, cell-based, fluorescence, HTS (AID 430); type: functional; details: Homo sapiens
[21] = target: Potassium voltage-gated channel subfamily KQT member 2 (Rattus norvegicus, UniProt O88943, W236L); assay: KCNQ2 channel potentiators, dose response, mechanism study for KCNQ2 potentiator project, cell-based, automated electrophysiology (AID 2603); type: functional
Sequence of Potassium voltage-gated channel subfamily KQT member 2 (O88943 whole entry W236L): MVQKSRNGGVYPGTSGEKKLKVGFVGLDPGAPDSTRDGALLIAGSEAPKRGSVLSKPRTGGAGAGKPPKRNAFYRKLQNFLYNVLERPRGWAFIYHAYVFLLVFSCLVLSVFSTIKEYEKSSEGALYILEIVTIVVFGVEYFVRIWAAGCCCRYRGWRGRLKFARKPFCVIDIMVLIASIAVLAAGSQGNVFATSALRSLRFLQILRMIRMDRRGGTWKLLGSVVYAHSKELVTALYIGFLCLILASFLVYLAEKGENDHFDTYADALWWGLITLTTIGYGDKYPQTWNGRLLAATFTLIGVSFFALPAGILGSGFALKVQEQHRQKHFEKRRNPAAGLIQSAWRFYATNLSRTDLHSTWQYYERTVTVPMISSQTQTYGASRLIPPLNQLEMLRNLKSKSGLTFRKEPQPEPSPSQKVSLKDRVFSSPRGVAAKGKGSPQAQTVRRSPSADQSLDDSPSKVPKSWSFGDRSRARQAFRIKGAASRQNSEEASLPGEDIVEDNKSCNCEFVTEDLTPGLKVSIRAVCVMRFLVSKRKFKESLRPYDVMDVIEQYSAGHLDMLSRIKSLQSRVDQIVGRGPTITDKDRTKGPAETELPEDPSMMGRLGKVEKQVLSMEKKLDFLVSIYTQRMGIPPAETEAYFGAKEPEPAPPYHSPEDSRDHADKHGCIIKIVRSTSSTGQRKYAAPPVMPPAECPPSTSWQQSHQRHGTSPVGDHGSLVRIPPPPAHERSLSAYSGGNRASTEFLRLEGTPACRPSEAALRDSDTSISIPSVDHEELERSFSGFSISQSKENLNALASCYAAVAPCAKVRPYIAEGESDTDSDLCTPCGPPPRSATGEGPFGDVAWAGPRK

[22] = target: Luciferin 4-monooxygenase (Photinus pyralis, UniProt P08659); assay: firefly luciferase enzyme inhibitors, dose response, biochemical, luminescence (AID 1891)
Sequence of Luciferin 4-monooxygenase (P08659 whole entry): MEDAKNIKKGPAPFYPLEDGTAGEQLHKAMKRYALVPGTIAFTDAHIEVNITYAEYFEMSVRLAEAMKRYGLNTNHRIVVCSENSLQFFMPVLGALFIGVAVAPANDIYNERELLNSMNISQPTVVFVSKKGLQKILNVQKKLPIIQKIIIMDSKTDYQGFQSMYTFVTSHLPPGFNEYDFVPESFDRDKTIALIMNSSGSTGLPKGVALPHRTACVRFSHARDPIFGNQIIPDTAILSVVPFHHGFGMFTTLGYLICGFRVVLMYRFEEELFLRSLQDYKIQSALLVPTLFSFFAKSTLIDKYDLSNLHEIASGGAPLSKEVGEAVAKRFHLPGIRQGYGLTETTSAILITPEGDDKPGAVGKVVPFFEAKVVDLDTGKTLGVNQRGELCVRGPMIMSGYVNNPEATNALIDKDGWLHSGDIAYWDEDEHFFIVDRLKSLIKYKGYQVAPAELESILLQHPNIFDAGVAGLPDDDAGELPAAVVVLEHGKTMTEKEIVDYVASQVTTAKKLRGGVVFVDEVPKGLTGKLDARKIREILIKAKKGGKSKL

[23] = Luminescence Cell-Based Dose Confirmation HTS to Identify Inhibitors of Platelet Dense Granule Release. [Related pubchem assays: 1663 (Primary HTS), 1678 (Summary of Project)]; type: functional
[24] = target: T4, Rac GTPase-activating protein 1 (Homo sapiens, UniProt Q9H0H5); assay: MgcRacGAP GTPase-activating activity inhibitors, confirmation, biochemical, ADP Hunter fluorescence, primary and confirmatory (AID 624330); type: functional
T4 sequence (Q9H0H5 whole entry): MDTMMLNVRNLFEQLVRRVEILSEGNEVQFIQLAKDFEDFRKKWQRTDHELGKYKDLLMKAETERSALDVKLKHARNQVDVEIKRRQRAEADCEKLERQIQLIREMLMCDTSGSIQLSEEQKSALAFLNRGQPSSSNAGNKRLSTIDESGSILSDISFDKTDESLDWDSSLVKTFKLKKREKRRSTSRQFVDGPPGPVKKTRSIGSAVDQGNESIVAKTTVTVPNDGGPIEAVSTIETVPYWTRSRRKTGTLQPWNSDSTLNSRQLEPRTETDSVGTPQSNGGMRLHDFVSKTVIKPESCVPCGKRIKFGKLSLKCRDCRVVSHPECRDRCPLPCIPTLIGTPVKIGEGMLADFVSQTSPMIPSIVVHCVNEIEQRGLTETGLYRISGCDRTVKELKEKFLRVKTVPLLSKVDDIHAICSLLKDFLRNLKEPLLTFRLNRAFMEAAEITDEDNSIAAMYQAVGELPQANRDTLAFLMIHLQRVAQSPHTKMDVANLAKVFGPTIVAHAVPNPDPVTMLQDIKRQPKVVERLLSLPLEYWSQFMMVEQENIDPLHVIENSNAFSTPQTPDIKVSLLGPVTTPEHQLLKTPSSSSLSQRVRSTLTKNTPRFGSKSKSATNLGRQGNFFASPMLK

[25] = A High Throughput Confirmatory Assay used to Identify Novel Compounds that Inhibit Mycobacterium Tuberculosis in the absence of Glycerol.; type: functional
Mucolipin-3 = Mucolipin-3 (Homo sapiens, UniProt Q8TDD5); assay: Dose response cell-based high-throughput screening assay for agonists of the transient receptor potential channel ML3 (TRPML3). [Related pubchem assays: 1526, 1424, 1448 ]; type: functional
Ion channel NompC = Ion channel NompC (Danio rerio, UniProt Q7T1G6); assay: Fluorescence counterscreen assay for TRPML3 agonists: dose response cell-based high-throughput screening assay to identify agonists of the transient receptor potential channel N1 (TRPN1). [Related pubchem assays: 1526, 1424, 1448 ]; type: functional
Sequence of Ion channel NompC (Q7T1G6 whole entry): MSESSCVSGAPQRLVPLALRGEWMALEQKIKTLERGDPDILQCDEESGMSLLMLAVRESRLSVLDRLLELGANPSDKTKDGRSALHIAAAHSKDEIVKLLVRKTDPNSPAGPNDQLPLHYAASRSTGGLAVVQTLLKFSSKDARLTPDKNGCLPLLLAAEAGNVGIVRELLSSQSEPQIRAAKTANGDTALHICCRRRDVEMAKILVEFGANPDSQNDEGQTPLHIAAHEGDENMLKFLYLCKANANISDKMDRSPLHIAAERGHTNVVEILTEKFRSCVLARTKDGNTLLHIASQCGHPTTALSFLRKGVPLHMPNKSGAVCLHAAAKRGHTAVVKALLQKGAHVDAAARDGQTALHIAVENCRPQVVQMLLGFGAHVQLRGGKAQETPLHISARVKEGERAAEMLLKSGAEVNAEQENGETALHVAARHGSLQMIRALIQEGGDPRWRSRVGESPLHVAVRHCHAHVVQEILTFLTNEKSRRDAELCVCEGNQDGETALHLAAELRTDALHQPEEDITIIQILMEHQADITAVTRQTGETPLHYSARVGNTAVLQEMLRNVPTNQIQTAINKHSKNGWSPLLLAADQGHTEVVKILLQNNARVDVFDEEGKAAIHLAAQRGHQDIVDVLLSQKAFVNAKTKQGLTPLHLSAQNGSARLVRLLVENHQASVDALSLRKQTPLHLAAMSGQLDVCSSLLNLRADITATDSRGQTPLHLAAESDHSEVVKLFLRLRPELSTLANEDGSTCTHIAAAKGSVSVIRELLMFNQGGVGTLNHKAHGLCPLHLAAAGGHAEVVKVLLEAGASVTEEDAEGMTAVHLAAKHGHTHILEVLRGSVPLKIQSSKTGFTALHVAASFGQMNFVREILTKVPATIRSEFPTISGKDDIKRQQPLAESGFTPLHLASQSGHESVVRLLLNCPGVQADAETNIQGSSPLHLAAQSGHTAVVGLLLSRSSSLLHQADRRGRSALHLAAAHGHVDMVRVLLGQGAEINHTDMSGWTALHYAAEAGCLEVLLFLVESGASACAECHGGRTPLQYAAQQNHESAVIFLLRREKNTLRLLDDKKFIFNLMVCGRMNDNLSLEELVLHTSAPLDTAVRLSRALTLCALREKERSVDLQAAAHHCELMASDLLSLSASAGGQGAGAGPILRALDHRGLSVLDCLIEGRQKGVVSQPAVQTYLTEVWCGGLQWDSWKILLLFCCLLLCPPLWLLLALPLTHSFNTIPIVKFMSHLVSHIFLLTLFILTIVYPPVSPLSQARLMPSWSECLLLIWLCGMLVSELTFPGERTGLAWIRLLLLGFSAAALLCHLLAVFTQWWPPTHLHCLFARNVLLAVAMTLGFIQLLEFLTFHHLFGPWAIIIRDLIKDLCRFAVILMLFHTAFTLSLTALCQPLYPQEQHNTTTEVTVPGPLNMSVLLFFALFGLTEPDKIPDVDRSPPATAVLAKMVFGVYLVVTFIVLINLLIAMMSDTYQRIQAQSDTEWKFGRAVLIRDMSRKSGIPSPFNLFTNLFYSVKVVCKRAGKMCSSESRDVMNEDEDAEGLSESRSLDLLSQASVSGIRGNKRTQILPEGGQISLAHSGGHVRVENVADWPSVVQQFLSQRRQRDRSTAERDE

[26] = target: T5, Heat shock factor protein 1 (Mus musculus, UniProt P38532); assay: HSF1 potentiators in luciferase reporter cells, confirmation, cell-based, NIH3T3, luminescence, dose retest (AID 435004); type: functional;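 further: stress induced by proteasome inhibitor MG132 added 30 min after compound; luciferase reporter driven by HSF1 response element in NIH3T3 cells; actives raise luminescence as potentiators of the MG132 stress response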
T5 sequence (P38532 whole entry): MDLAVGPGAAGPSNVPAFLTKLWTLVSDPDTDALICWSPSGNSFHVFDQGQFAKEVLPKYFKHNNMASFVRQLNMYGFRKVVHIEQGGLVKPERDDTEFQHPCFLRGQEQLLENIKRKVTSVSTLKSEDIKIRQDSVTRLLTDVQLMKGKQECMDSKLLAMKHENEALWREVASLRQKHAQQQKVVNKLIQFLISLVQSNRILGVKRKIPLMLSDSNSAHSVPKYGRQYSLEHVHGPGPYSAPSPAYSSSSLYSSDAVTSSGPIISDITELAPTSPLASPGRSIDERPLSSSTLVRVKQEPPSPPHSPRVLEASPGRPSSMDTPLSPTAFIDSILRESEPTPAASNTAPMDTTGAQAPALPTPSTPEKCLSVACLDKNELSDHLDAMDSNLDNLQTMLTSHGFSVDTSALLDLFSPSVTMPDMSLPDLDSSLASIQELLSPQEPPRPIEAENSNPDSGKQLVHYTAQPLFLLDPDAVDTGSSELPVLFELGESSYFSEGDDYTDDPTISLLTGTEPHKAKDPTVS

[27] = M. tuberculosis H37Rv growth inhibitors, H37Rv strain (AID 1626); type: functional
[28] = target: Epstein-Barr nuclear antigen 1 (Epstein-Barr virus (strain B95-8) (HHV-4) (Human herpesvirus 4), UniProt P03211); assay: EBNA-1 inhibitors, dose response, biochemical, fluorescence polarization, 1536-well (AID 2381); design: species or system human gammaherpesvirus 4;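 further: fluorescence polarization of a Cy5 DNA probe bound by EBNA-1 protein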
Sequence of Epstein-Barr nuclear antigen 1 (P03211 whole entry): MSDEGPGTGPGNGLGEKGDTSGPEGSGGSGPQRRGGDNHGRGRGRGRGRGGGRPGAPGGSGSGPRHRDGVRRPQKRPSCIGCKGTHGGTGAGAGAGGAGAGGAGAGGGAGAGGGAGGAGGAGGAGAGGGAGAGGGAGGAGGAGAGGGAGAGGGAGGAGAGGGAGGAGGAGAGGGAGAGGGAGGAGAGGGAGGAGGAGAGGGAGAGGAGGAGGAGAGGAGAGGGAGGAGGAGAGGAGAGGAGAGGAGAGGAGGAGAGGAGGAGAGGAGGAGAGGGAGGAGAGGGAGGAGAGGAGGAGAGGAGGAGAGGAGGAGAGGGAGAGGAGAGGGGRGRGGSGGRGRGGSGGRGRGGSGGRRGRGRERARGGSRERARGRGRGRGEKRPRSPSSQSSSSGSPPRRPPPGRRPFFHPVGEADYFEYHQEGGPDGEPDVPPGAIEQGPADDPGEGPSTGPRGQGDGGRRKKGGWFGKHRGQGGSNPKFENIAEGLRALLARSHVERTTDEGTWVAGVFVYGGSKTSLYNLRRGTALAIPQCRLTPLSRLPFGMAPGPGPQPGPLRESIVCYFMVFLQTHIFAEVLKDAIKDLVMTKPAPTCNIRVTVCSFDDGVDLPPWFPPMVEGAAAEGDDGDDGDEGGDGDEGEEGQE

[29] = target: Lytic switch protein BZLF1 (Epstein-Barr virus (strain B95-8) (HHV-4) (Human herpesvirus 4), UniProt P03206); assay: EBV ZTA inhibitors, dose response, counter-screen for EBNA-1 inhibitor project, biochemical, fluorescence polarization, Epstein-Barr virus, 1536-well (AID 2377); design: species or system human gammaherpesvirus 4;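 further: fluorescence polarization of Cy5-labelled ZRE DNA probe bound by purified Zta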
[30] = inhibitors of Bluetongue virus cytopathic effect, confirmation, arbovirus, BSR cells (AID 1250); type: functional;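 further: protection from viral cytopathic effect measured as cell viability by ATP luminescence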

COc1ccc(N(C)S(=O)(=O)c2cccc(C(=O)NCC3CCCCC3)c2)cc1
EC50 [1]: > 30 µM (not active) | IC50 [2]: 14.1 µM (not active) | EC50 [3]: > 30 µM (not active) | IC50 [4]: > 35 µM (not active) | IC50 [5]: > 35 µM (not active)

Oc1cccc(/C=N/Nc2ccc(Cl)nn2)c1O
AC50 (INS1): 1.76 µM (active) | IC50 (HEK293 [6]): > 20 µM (inactive) | EC50 (HEK293 [7]): > 20 µM (inactive) | IC50 [8]: > 119 µM (inactive) | IC50 (Exodeoxyribonuclease V): > 119 µM (inactive) | IC50 (Nonstructural protein 1): 2.23 µM (active) | IC50 (HEK293 [9]): > 20 µM (inactive) | AC50 [10]: 20.4 µM (active) | IC50 (HEK293 [11]): > 20 µM (inactive) | EC50 [12]: > 20 µM (inactive) | IC50 [13]: 7.91 µM (active) | IC50 (HEK293 [14]): 17.5 µM (active)

C[C@H]1CCC/C=C/C2C[C@H](O)CC2[C@H](O)/C=C/C(=O)O1 (stereo partly drawn)
AC50 (INS1): 1.01 µM (active) | EC50 [15]: 2.37 µM (inconclusive) | IC50 [16]: > 80 µM (inactive) | IC50 [17]: 0.446 µM (active) | EC50 [18]: 0.843 µM (active) | EC50 [19]: 0.24 µM (active) | EC50 [20]: 0.23 µM (active)

Cc1cc(Cl)c(S(=O)(=O)N2CCN(c3ccccn3)CC2)cc1OCC(=O)NC1CCCCC1
EC50 [21]: 5.34 µM (active) | EC50 [22]: 77.1 µM (active) | EC50 [23]: > 112 µM (not active)

O=C(NC1CCN(C(=O)N2c3ccccc3Sc3ccccc32)CC1)c1ccccc1F
IC50 [24]: 115 µM (active) | IC50 [25]: > 100 µM (active)

O=C(Nc1c(S(=O)(=O)c2ccc(Cl)cc2)csc1Br)c1ccccc1Cl
EC50 (Mucolipin-3): > 3.32 µM (active) | EC50 (Ion channel NompC): > 29.9 µM (not active) | EC50 [26]: > 260 µM (inactive)

CCc1ccccc1NC(=O)c1ccc([N+](=O)[O-])s1
EC50 [1]: 0.471 µM (active) | EC50 [3]: > 30 µM (not active) | IC50 [27]: > 100 µM (active)

CCOc1ccc(NC(=O)CCC(=O)NNC(=O)COc2ccc(C)cc2Br)cc1
IC50 [28]: 5.52 µM (active) | IC50 [29]: > 111 µM (not active)

COc1cccc(-c2nc(SCC(=O)Nc3nc(-c4ccccc4)c(C)s3)nc(O)c2C#N)c1
IC50 [30]: 23.4 µM (active)
